Measurements taken from patent US20190070128A1, “USE OF CANNABIDIVARIN IN THE TREATMENT OF AUTISM SPECTRUM DISORDER, ASSOCIATED DISORDERS AND SCHIZOPHRENIA” (GW Research Limited, priority 2016, published 2019).

Experiments:
PCP-treated rats [1] = assay: novel object recognition test in sub-chronic PCP treated rats; format: in vivo, rat; details: PCP rats; CBDV 2, 10 or 20 mg/kg i.p., risperidone 0.1 mg/kg i.p., 60 min prior to testing
Procedure: (§1) Female hooded-Lister rats were used for this experiment. Rats were housed in groups of 5 under standard laboratory conditions under a 12 hr light: dark cycle, lights on at 0700 hr. Testing was carried out in the light phase.
(§2) Rats were randomly assigned to two treatment groups and treated with vehicle, n=20 (distilled water, i.p.) or Phencyclidine hydrochloride (PCP), n=100 (2 mg/kg, i.p. twice daily for 7-days). PCP was dissolved in distilled water. This was followed by a 7-day wash out period before the rats were tested following acute treatment with CBDV, risperidone or vehicle.
(§3) Risperidone (0.1 mg/kg) was dissolved in a minimum volume of acetic acid, made up to volume with distilled water and pH adjusted to 6 with 0.1M NaOH and administered via the i.p. route in a volume of 1 ml/kg, 60 min prior to testing.
(§4) CBDV at 2, 10 or 20 mg/kg was dissolved in 2:1:17 (Ethanol:Cremofor:Saline 0.9%) and administered via the i.p. route in a volume of 5 ml/kg, 60 min prior to testing.
Rats were allowed to habituate to the empty test box and the behavioural test room environment for 1 h on day 1. Prior to behavioural testing on day 2 rats are given a further 3 min habituation.
Following the 3 min habituation period, the rats are given two 3 min trials (T1 and T2) which are separated by a 1 min inter-trial interval in the home cage during which the objects are changed. Behaviour in all trials was recorded on video for subsequent blind scoring.
In this trial, the animals are allowed to explore two identical objects (A1 and A2) for 3 min.
In this trial, the animals explore a familiar object (A) from T1 and a novel object (B) for 3 min. The familiar object presented during T2 is a duplicate of the object presented in T1 in order to avoid any olfactory trails.
The object exploration is defined by animals licking, sniffing or touching the object with the forepaws whilst sniffing, but not leaning against, turning around, standing or sitting on the object. The exploration time (s) of each object (A, B, familiar and novel) in each trial are recorded using two stopwatches and the following factors are calculated: • Total exploration time of both objects in the acquisition trial (s). • Total exploration time of both objects in the retention trial (s). • Habituation of exploratory activity includes the exploration time, as measured by the number of lines crossed, for both the trials. • Discrimination index (DI), which is calculated as shown below: […]

PCP-treated rats [2] = assay: social interaction test in sub-chronic PCP treated rats; format: in vivo, rat
Procedure: as §1, §2, §3, §4
The social interaction test is performed in an open-field comprising a square box made of Plexiglas (52×52×31 cm) placed 27 cm above the floor on a moveable trolley. The floor of the box is white with black gridlines forming 9 identical squares on it. All other walls are black. A video camera connected to a video recorder and monitor is positioned above the box. The object used for the test consists of a heavy structure made of metal that cannot be displaced by the animals.
The rats were habituated to the test environment and arena prior to the test day. Habituation consists of placing all rats from one cage together in the empty test arena for one hour for three days including the day before the test day.
Pairs of rats, weight matched (15-20 g) and unfamiliar to each other, receiving either no treatment (n=70 “conspecific” rats) or different treatments (PCP and Vehicle; n=10 “tested” rats or PCP+Drug; n=50 “tested” rats) were placed in the test arena together for 10 min and behaviour assessed as described below.
An inanimate object such as an unopened drinks can is also placed in the centre of the arena to measure any differences in interaction of the test animal with an unfamiliar animal as opposed to an unfamiliar object. After each 10 minute trial, the object and arena are cleaned with 10% alcohol in an attempt to remove traces of any olfactory cues. All testing is carried out under standard room illumination levels (70 cd/m2).
Behaviour in both trials was recorded on video for subsequent blind scoring. A behavioural scoring software program (Hindsight, Scientific programming services) is used to score the following parameters: • Investigative sniffing behaviour: sniffing the conspecific's snout or parts of the body including the anogenital region; • Following: rat moves after the conspecific i.e. a vehicle treated rat of the same species, around the arena; • Avoidances: actively turning away when approached by the conspecific animal; • Investigation of object: exploration of object placed in centre of the arena; and • Locomotor activity is recorded by counting the total number of sectors (i.e. lines) crossed by the test rat.

PCP-treated rats [3] = details: rat, in vivo; cited from earlier work

## Cc1nc2n(c(=O)c1CCN1CCC(c3noc4cc(F)ccc34)CC1)CCCC2 [risperidone, reference compound]
PCP-treated rats [1]
  preference between two identical objects, Trial 1 (acquisition): no real preference
PCP-treated rats [2]
  PCP effects on social interaction (sniffing, following, avoiding): reverse these effects in a statistically significant manner
PCP-treated rats [2]; risperidone 0.1 mg/kg, time increased over PCP alone group
  time spent following the other rat: not seen to be significant
PCP-treated rats [3]
  PCP-induced deficit in the novel object recognition test: attenuate
